The source of these data is US11352359B2, “PI3K protein kinase inhibitors” (Rhizen Pharmaceuticals SA, priority 2013, dated 2022).

In one series the target is PI3Kδ (Homo sapiens, UniProt O00329). The experiment in a line: Fluorescent determination of PI3Kinase enzyme activity (HTRF), PI3Kδ. The format is biochemical. The note with it: for inhibition at 0.1 µM: 100 nM (underlined values: 300 nM). An excerpt:
(§1) Fluorescent Determination of PI3Kinase Enzyme Activity
(§2) Phosphoinositide 3 kinases (PI3K) belong to a class of Lipid kinases that play a critical role in the regulation of several key cellular processes. The PI3K are capable of phosphorylating the 3-hydroxy position of phosphoinositols thereby generating second messengers involved in downstream signalling events. The homogenous time resolved fluorescence (HTRF) assay allows detection of 3,4,5-triphosphate (PIP3) formed as a result of phosphorylation of phosphotidylinositol 4,5-biphosphate (PIP2) by PI3K isoforms such as α, […], γ or δ.
(§3) PI3K isoform activity for α, β, γ or δ is to be determined using a PI3K human HTRF™ Assay Kit (Millipore, Billerica, Mass.) with modifications. All incubations were carried out at room temperature. Briefly, 0.5 μl of 40× inhibitor (in 100% DMSO) or 100% DMSO were added to each well of a 384-well black plate (Greiner Bio-One, Monroe, N.C.) containing 14.5 μl 1× reaction buffer/PIP2 (10 mM MgCl2, 5 mM DTT, 1.38 μM PIP2) mix with or without enzyme and incubated for 10 min. After the initial incubation, 5 μl/well of 400 μM ATP was added and incubated for an additional 30 minutes. Reaction was terminated by adding 5 μl/well stop solution (Millipore, Billerica, Mass.). Five microliters of detection mix (Millipore, Billerica, Mass.) were then added to each well and was incubated for 6-18 h in the dark. HRTF ratio was measured on a microplate reader (BMG Labtech, Germany) at an excitation wavelength of 337 nm and emission wavelengths of 665 and 620 nm with an integration time of 400 μsec. Data was analyzed using Graphpad Prism (Graphpad software; San Diego Calif.) for IC50 determination).
Background: Time-resolved FRET reads energy transfer from a long-lived donor to a nearby acceptor.

Another series has as its target PI3Kγ (Homo sapiens, UniProt P48736). Kind of series: Fluorescent determination of PI3Kinase enzyme activity (HTRF), PI3Kγ. The format is biochemical. The note with it: for inhibition at 0.1 µM: 100 nM (underlined values: 300 nM).
Text: as §1, §2, §3

Another series has as its target PI3Kα (Homo sapiens, UniProt P42336). Kind of series: Fluorescent determination of PI3Kinase enzyme activity (HTRF), PI3Kα. The class given is biochemical.
Text: as §1, §2, §3

The next series concerns the target PI3Kβ (Homo sapiens, UniProt P42338). Kind of series: Fluorescent determination of PI3Kinase enzyme activity (HTRF), PI3Kβ. The class given is biochemical.
Text: as §1, §2, §3

PI3Kγ, sequence (P48736 whole entry): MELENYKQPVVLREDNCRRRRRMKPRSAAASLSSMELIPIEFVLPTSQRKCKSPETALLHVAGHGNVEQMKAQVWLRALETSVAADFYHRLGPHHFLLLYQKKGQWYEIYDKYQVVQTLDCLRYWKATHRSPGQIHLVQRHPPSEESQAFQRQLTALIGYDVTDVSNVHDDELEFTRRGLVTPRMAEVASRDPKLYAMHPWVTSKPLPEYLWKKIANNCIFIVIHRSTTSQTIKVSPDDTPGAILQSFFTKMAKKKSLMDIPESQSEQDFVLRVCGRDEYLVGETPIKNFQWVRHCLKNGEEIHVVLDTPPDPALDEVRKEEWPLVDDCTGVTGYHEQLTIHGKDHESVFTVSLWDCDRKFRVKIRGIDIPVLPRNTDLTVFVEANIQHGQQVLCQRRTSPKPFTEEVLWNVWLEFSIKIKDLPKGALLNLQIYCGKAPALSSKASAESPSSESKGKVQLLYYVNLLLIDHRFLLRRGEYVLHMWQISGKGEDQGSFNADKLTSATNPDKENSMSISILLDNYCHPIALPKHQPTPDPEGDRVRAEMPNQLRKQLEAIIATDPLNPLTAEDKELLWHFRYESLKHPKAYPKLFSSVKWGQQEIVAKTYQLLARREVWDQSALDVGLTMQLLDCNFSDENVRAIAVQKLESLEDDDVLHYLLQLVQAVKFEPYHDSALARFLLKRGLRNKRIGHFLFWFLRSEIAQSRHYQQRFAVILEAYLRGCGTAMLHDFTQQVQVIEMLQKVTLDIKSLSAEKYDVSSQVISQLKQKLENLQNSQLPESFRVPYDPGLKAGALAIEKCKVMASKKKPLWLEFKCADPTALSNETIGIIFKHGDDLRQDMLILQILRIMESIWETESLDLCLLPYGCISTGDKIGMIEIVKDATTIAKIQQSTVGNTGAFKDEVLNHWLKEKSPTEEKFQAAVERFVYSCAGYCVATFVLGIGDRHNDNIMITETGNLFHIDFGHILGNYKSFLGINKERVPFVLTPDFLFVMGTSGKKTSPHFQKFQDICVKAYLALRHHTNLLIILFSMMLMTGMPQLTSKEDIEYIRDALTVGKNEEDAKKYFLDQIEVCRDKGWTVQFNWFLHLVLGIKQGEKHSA
PI3Kβ, sequence (P42338 whole entry): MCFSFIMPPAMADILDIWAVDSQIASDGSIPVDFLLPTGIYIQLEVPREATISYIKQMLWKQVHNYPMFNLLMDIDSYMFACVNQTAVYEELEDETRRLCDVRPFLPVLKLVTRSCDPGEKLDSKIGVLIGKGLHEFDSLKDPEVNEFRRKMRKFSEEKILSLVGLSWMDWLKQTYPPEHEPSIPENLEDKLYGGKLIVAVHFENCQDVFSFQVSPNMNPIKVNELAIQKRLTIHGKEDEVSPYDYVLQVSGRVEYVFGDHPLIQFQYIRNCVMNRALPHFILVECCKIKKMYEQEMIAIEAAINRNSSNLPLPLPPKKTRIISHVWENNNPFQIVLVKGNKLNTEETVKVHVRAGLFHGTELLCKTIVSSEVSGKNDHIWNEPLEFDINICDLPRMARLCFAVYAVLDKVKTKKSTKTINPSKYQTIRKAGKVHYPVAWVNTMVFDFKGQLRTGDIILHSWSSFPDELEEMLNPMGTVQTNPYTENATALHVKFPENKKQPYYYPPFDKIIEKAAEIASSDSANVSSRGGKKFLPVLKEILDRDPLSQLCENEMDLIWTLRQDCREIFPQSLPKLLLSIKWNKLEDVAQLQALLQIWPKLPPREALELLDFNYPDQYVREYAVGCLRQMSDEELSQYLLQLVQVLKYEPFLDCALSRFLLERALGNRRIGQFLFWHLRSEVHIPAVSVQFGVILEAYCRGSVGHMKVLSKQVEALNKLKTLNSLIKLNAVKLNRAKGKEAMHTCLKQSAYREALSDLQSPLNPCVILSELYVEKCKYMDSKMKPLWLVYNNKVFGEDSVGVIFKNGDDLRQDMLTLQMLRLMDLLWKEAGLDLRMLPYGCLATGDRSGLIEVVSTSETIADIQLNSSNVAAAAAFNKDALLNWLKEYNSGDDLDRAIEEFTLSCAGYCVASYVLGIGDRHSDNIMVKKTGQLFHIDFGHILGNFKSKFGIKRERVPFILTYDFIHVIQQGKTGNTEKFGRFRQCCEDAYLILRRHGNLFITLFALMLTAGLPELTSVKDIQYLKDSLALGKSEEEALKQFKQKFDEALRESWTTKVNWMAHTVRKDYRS
PI3Kβ, sequence (P27986 whole entry partner): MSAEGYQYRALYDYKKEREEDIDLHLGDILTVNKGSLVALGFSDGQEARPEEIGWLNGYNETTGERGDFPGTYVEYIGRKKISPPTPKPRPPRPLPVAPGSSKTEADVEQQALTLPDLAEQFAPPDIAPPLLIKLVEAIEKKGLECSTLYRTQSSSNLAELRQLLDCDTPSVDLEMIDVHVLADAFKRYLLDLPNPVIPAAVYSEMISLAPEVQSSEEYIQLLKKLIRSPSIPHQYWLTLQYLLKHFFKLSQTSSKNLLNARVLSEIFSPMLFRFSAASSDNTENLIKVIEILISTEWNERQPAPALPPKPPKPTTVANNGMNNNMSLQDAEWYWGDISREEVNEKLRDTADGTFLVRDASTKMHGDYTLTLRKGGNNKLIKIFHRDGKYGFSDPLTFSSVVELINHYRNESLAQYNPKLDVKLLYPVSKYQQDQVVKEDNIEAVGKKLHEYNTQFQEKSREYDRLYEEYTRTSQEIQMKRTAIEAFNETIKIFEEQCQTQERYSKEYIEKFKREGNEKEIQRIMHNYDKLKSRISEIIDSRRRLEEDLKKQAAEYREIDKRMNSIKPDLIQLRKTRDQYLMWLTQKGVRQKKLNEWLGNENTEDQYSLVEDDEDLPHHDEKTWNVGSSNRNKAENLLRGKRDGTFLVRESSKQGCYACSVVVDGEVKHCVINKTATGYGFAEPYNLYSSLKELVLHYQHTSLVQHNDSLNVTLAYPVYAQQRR
PI3Kδ, sequence (O00329 whole entry): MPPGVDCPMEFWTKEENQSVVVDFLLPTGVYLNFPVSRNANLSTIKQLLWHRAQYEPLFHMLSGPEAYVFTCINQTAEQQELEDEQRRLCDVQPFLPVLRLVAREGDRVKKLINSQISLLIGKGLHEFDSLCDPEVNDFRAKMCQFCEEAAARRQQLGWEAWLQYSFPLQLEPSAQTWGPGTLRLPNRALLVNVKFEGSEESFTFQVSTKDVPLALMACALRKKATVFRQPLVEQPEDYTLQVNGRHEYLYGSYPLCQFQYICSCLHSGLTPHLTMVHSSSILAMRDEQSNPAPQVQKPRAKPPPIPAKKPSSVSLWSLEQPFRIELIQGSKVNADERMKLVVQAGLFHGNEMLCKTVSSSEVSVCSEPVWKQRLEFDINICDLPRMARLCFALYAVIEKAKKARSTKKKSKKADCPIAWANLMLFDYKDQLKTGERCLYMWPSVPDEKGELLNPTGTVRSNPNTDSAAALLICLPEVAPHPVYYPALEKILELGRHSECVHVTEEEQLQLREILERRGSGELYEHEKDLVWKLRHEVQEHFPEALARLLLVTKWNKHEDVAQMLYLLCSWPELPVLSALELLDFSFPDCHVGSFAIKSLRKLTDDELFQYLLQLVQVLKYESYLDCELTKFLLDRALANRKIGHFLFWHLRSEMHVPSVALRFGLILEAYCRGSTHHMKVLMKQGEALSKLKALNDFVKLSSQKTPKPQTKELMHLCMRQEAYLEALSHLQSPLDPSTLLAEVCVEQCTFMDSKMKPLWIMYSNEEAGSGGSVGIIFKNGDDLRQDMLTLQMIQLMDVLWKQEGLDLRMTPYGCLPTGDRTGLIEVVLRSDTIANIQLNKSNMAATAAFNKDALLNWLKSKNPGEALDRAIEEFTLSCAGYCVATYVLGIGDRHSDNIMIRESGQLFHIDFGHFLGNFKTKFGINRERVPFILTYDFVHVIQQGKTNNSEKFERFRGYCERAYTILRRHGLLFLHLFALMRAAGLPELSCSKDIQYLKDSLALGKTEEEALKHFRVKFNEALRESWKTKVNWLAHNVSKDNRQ
PI3Kδ, sequence (P27986 whole entry partner): as the sequence (P27986 whole entry partner) above
PI3Kα, sequence (P42336 whole entry): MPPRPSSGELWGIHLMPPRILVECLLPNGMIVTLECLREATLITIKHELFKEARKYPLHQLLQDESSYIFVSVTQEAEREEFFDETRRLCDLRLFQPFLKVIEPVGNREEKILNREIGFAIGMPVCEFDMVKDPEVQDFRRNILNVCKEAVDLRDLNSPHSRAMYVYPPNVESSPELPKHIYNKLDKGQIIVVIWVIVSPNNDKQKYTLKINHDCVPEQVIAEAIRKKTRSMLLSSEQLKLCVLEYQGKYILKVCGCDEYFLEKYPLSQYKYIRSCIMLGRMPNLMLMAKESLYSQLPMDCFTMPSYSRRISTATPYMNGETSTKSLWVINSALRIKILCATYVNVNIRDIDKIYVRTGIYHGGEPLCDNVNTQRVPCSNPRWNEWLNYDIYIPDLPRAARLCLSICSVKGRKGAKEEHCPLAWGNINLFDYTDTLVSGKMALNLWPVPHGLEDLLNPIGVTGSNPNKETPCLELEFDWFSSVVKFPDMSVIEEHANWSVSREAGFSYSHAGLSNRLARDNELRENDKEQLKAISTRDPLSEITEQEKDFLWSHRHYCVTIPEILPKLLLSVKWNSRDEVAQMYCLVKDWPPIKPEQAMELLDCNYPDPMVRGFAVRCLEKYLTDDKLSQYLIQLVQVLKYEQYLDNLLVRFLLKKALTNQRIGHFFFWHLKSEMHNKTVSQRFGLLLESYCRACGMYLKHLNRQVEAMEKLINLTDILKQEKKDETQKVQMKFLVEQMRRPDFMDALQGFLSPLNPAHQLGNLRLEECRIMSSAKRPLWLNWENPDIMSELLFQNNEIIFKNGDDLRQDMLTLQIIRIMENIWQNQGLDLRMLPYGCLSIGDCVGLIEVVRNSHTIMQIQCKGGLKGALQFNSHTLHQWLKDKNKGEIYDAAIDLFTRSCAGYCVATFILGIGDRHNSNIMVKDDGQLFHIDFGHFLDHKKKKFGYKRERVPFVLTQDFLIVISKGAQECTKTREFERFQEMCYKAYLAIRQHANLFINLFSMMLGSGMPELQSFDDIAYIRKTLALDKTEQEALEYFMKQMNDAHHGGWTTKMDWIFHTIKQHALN
PI3Kα, sequence (P27986 whole entry partner): as the sequence (P27986 whole entry partner) above

As a reminder, the inhibition is the relative decrease from the control value, in per cent. High values mean a response far below the control, low ones a response near the control. The melting point is the temperature, or range, at which the solid turns liquid. Compound `CC(c1nc2cccc(F)c2c(=O)n1-c1ccccc1)n1nc(-c2ccc(O)c(F)c2)c2c(N)ncnc21` (centres unmarked) [Example 16, 2-(1-(4-amino-3-(3-fluoro-4-hydroxyphenyl)-1H-pyrazolo[3,4-d]pyrimidin-1-yl)ethyl)-5-fluoro-3-phenylquinazolin-4(3H)-one] gave a melting point of 212 to 214 °C. The inhibition at 0.1 µM on PI3Kδ was 40 to 60%. Further, the inhibition at 0.1 µM at PI3Kγ lay within 40 to 60%. The compound further yielded an inhibition at 1 µM against PI3Kα of 0 to 10%. This compound yielded an inhibition at 1 µM against PI3Kβ of 60 to 80%.

Regarding `COc1ccc(-c2nn([C@H](C)c3cc4cccc(Cl)c4c(=O)n3-c3ccccc3)c3ncnc(N)c23)cc1NS(C)(=O)=O` [Example 20b, (−)—N-(5-(4-amino-1-(1-(8-chloro-1-oxo-2-phenyl-1,2-dihydroisoquinolin-3-yl)ethyl)-1H-pyrazolo[3,4-d]pyrimidin-3-yl)-2-methoxyphenyl)methanesulfonamide], the melting point was 180 to 183 °C. This compound showed an inhibition at 0.1 µM at PI3Kδ of 20 to 40%. The same compound displayed an inhibition at 0.1 µM against PI3Kγ of 0 to 20%. The same compound came in with an inhibition at 1 µM against PI3Kα of 0 to 10%. At PI3Kβ, the inhibition at 1 µM fell in the range of 20 to 40%.

In the case of `C[C@H](c1nc2cccc(F)c2c(=O)n1-c1ccccc1)n1nc(-c2ccc(O)c(F)c2)c2c(N)ncnc21` [Example 16b, (−)-2-(1-(4-amino-3-(3-fluoro-4-hydroxyphenyl)-1H-pyrazolo[3,4-d]pyrimidin-1-yl)ethyl)-5-fluoro-3-phenylquinazolin-4(3H)-one], the melting point was 269 to 271 °C. Further, the inhibition at 0.1 µM against PI3Kδ was 20 to 40%. The compound also showed an inhibition at 0.1 µM against PI3Kγ of 0 to 20%. The inhibition at 1 µM against PI3Kα was 0 to 10%. This compound gave an inhibition at 1 µM at PI3Kβ of 0 to 10%.

Turning to `C[C@H](c1cc2cccc(F)c2c(=O)n1-c1ccccc1)n1nc(-c2ccc(O)c(F)c2)c2c(N)ncnc21` [Example 15b, (−)-3-(1-(4-amino-3-(3-fluoro-4-hydroxyphenyl)-1H-pyrazolo[3,4-d]pyrimidin-1-yl)ethyl)-8-fluoro-2-phenylisoquinolin-1(2H)-one], the melting point was in the range of 258 to 260 °C. The same compound returned an inhibition at 0.1 µM on PI3Kδ of 20 to 40%. The compound further showed an inhibition at 0.1 µM against PI3Kγ of 0 to 20%. The inhibition at 1 µM against PI3Kα was in the range of 0 to 10%. In addition, at PI3Kβ, the inhibition at 1 µM lay in the range of 0 to 10%.

In the case of `COc1ccc(-c2nn(C(C)c3cc4ccccc4c(=O)n3-c3ccccc3)c3ncnc(N)c23)cc1NS(C)(=O)=O` (centres unmarked) [Example 9, N-(5-(4-amino-1-(1-(1-oxo-2-phenyl-1,2-dihydroisoquinolin-3-yl)ethyl)-1H-pyrazolo[3,4-d]pyrimidin-3-yl)-2-methoxyphenyl)methanesulfonamide], the melting point lay within 260 to 263 °C. The compound further yielded an inhibition at 0.1 µM against PI3Kδ of 40 to 60%. For the same compound, the inhibition at 0.1 µM against PI3Kγ is 20 to 40%. The inhibition at 1 µM on PI3Kα is 20 to 40%. The compound also yielded an inhibition at 1 µM against PI3Kβ of 40 to 60%.

Compound `Cc1n[nH]c2cc(-c3nn([C@H](C)c4cc5cccc(Cl)c5c(=O)n4-c4ccccc4)c4ncnc(N)c34)ccc12` [Example 21b, (−)-3-(1-(4-amino-3-(3-methyl-1H-indazol-6-yl)-1H-pyrazolo[3,4-d]pyrimidin-1-yl)ethyl)-8-chloro-2-phenylisoquinolin-1(2H)-one] showed a melting point of 225 to 227 °C. This compound gave an inhibition at 0.1 µM against PI3Kδ of 80 to 100%. The inhibition at 0.1 µM against PI3Kγ lay in the range of 40 to 60%. At PI3Kα, this compound yielded an inhibition at 1 µM of 0 to 10%. At PI3Kβ, this compound yielded an inhibition at 1 µM of 10 to 20%.

As for `CC(C)Oc1ccc(-c2nn([C@H](C)c3nc4ccccc4c(=O)n3-c3ccccc3)c3ncnc(N)c23)cc1F` [Example 6b, (−)-2-(1-(4-amino-3-(3-fluoro-4-isopropoxyphenyl)-1H-pyrazolo[3,4-d]pyrimidin-1-yl)ethyl)-3-phenylquinazolin-4(3H)-one], the melting point was in the range of 192 to 195 °C. Moreover, at PI3Kδ, the inhibition at 0.1 µM was 20 to 40%. In addition, on PI3Kγ, the inhibition at 0.1 µM was in the range of 0 to 20%. This compound also returned an inhibition at 1 µM at PI3Kα of 0 to 10%. Also, the inhibition at 1 µM against PI3Kβ is 20 to 40%.

Consider `CC(c1cc2cccc(Cl)c2c(=O)n1-c1ccccc1)n1nc(-c2ccc(O)c(F)c2)c2c(N)ncnc21` (centres unmarked) [Example 14, 3-(1-(4-amino-3-(3-fluoro-4-hydroxyphenyl)-1H-pyrazolo[3,4-d]pyrimidin-1-yl)ethyl)-8-chloro-2-phenylisoquinolin-1(2H)-one], for which the melting point was in the range of 218 to 219 °C. On PI3Kδ, this compound yielded an inhibition at 0.1 µM of 60 to 80%. The inhibition at 0.1 µM against PI3Kγ lay within 80 to 100%. This compound gave an inhibition at 1 µM against PI3Kα of 20 to 40%. Besides, on PI3Kβ, the inhibition at 1 µM is 60 to 80%.

Take `CC(c1nc2ccc(F)cc2c(=O)n1-c1ccccc1)n1nc(-c2ccc(O)c(F)c2)c2c(N)ncnc21` (centres unmarked) [Example 13, 2-(1-(4-amino-3-(3-fluoro-4-hydroxyphenyl)-1H-pyrazolo[3,4-d]pyrimidin-1-yl)ethyl)-6-fluoro-3-phenylquinazolin-4(3H)-one]: the melting point lay in the range of 231 to 232 °C. Moreover, the inhibition at 0.1 µM against PI3Kδ lay within 20 to 40%. Besides, the inhibition at 0.1 µM on PI3Kγ lay within 20 to 40%. On PI3Kα, this compound returned an inhibition at 1 µM of 0 to 10%. Further, the inhibition at 1 µM on PI3Kβ was in the range of 10 to 20%.

Compound `C[C@H](c1cc2cccc(Cl)c2c(=O)n1-c1ccccc1)n1nc(-c2ccc(O)c(F)c2)c2c(N)ncnc21` [Example 14b, (−)-3-(1-(4-amino-3-(3-fluoro-4-hydroxyphenyl)-1H-pyrazolo[3,4-d]pyrimidin-1-yl)ethyl)-8-chloro-2-phenylisoquinolin-1(2H)-one] registered a melting point of 215 to 219 °C. Also, the inhibition at 0.1 µM at PI3Kδ is 60 to 80%. On PI3Kγ, this compound showed an inhibition at 0.1 µM of 20 to 40%. The inhibition at 1 µM at PI3Kα lay within 0 to 10%. The inhibition at 1 µM against PI3Kβ fell in the range of 20 to 40%.

`CC(C)Oc1ccc(-c2nn([C@H](C)c3cc4ccccc4c(=O)n3-c3ccccc3)c3ncnc(N)c23)cc1F` [Example 5b, (−)-3-(1-(4-amino-3-(3-fluoro-4-isopropoxyphenyl)-1H-pyrazolo[3,4-d]pyrimidin-1-yl)ethyl)-2-phenylisoquinolin-1(2H)-one] gave a melting point of 232 to 235 °C. The compound also displayed an inhibition at 0.1 µM against PI3Kδ of 40 to 60%. On PI3Kγ, the inhibition at 0.1 µM was in the range of 0 to 20%. The compound further displayed an inhibition at 1 µM on PI3Kα of 0 to 10%. At PI3Kβ, the inhibition at 1 µM is 60 to 80%.

As for `CC(c1cc2cccc(F)c2c(=O)n1-c1ccccc1)n1nc(-c2ccc(O)c(F)c2)c2c(N)ncnc21` (centres unmarked) [Example 15, 3-(1-(4-amino-3-(3-fluoro-4-hydroxyphenyl)-1H-pyrazolo[3,4-d]pyrimidin-1-yl)ethyl)-8-fluoro-2-phenylisoquinolin-1(2H)-one], the melting point was in the range of 228 to 229 °C. The compound further returned an inhibition at 0.1 µM at PI3Kδ of 40 to 60%. At PI3Kγ, this compound gave an inhibition at 0.1 µM of 40 to 60%. Also, the inhibition at 1 µM against PI3Kα was in the range of 0 to 10%. Moreover, the inhibition at 1 µM against PI3Kβ lay within 20 to 40%.

The IC50 is the midpoint of a concentration-inhibition curve. Compound `C[C@H](c1cc2cccc(Cl)c2c(=O)n1-c1ccccc1)n1nc(-c2ccc(OC(F)F)c(F)c2)c2c(N)ncnc21` [Example 17b, (−)-3-(1-(4-amino-3-(4-(difluoromethoxy)-3-fluorophenyl)-1H-pyrazolo[3,4-d]pyrimidin-1-yl)ethyl)-8-chloro-2-phenylisoquinolin-1(2H)-one] returned a melting point of 181 to 185 °C. Also, on PI3Kδ, the IC50 was 45.6 nM and the inhibition at 0.1 µM fell in the range of 80 to 100%. On PI3Kγ, this compound returned an IC50 of 47.3 nM and an inhibition at 0.1 µM of 80 to 100%. Moreover, the inhibition at 1 µM against PI3Kα was 0 to 10%. The inhibition at 1 µM on PI3Kβ lay within 20 to 40%.

`C[C@H](c1cc2ccccc2c(=O)n1-c1ccccc1)n1nc(-c2ccc(O)c(F)c2)c2c(N)ncnc21` [Example 7b, (−)-3-(1-(4-amino-3-(3-fluoro-4-hydroxyphenyl)-1H-pyrazolo[3,4-d]pyrimidin-1-yl)ethyl)-2-phenylisoquinolin-1(2H)-one]: the melting point lay in the range of 230 to 232 °C. In addition, the inhibition at 0.1 µM against PI3Kδ lay within 40 to 60%. The compound also displayed an inhibition at 0.1 µM against PI3Kγ of 20 to 40%. This compound displayed an inhibition at 1 µM against PI3Kα of 0 to 10%. Besides, the inhibition at 1 µM on PI3Kβ was in the range of 20 to 40%.

As to `CC(C)Oc1ccc(-c2nn(C(C)c3cc4cccc(Cl)c4c(=O)n3-c3ccccc3)c3ncnc(N)c23)cc1F` (centres unmarked) [Example 1, 3-(1-(4-amino-3-(3-fluoro-4-isopropoxyphenyl)-1H-pyrazolo[3,4-d]pyrimidin-1-yl)ethyl)-8-chloro-2-phenylisoquinolin-1(2H)-one], the melting point fell in the range of 164 to 166 °C. The inhibition at 0.1 µM against PI3Kδ lay in the range of 20 to 40%. The same compound showed an inhibition at 0.1 µM on PI3Kγ of 0 to 20%. On PI3Kα, the inhibition at 1 µM lay within 0 to 10%. The same compound registered an inhibition at 1 µM against PI3Kβ of 0 to 10%.
